According to ChEMBL document CHEMBL1136262, “4-Alkoxy-2,6-diaminopyrimidine derivatives: inhibitors of cyclin dependent kinases 1 and 2” (Bioorg Med Chem Lett, 2003):

Assays:
[1] = biological target: T1, Cyclin-dependent kinase 1/cyclin B1 (Homo sapiens, UniProt P06493+P14635); test: Inhibition of Cyclin dependent kinase 1-cyclin B1 from starfish oocytes at 100 uM; conditions: Asteroidea, Oocyte
[2] = biological target: T2, Cyclin-dependent kinase 2/cyclin A (Homo sapiens) (UniProt P24941+P20248+P78396); test: Inhibition of human Cyclin-dependent kinase 2 cyclin A3 at 100 uM; type: protein-complex assay
[3] = biological target: Cyclin-dependent kinase 2/cyclin A (Homo sapiens, UniProt P24941); test: Inhibition of human Cyclin-dependent kinase 2 cyclin A3 at 12.5 uM ATP; type: protein-complex assay
[4] = biological target: T2, Cyclin-dependent kinase 2/cyclin A (Homo sapiens); test: Inhibition of human Cyclin-dependent kinase 2 cyclin A3 at 10 uM; type: protein-complex assay
[5] = biological target: T1, Cyclin-dependent kinase 1/cyclin B1; test: Inhibition of Cyclin dependent kinase 1-cyclin B1 from starfish oocytes at 10 uM; conditions: Asteroidea, Oocyte

T1 sequence (P06493 whole entry, looked up): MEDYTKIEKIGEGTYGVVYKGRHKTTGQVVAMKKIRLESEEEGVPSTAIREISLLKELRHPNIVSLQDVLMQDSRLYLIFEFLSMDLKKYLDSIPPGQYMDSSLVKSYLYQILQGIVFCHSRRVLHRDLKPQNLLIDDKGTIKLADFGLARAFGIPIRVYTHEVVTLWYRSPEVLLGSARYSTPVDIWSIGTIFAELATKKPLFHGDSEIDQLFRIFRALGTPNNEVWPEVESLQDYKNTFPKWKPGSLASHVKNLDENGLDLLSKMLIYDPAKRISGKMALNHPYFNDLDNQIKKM
T1 sequence (P14635 whole entry, looked up): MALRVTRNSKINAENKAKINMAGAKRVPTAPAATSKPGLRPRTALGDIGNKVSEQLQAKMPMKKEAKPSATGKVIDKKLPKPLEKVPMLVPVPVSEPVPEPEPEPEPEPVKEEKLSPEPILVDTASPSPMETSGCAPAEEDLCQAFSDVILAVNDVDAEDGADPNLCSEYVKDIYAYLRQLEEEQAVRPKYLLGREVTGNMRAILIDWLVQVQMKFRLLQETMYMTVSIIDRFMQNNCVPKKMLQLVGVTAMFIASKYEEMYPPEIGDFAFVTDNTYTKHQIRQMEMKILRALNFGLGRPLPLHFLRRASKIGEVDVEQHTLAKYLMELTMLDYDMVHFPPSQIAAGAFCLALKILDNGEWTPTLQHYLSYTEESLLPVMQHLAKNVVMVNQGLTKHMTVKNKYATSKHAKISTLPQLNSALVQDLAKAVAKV

inhibition [1] [%] | inhibition [2] [%] | IC50 [3] [µM] | inhibition [4] [%] | inhibition [5] [%] | Structure (SMILES)
 |  |  | 43 | 35 | Nc1nc(N)c(C=O)c(OCC2CCCCC2)n1
 |  |  | 7 | 4 | Nc1cc(OCC2CCCCC2)nc(N)n1
 |  |  | 6 | 21 | Nc1nc(N)c(C(=O)c2ccccc2)c(OCC2CCCCC2)n1
36 | 28 |  |  |  | CC(=O)Nc1nc(N)nc(OCC2CCCCC2)c1N=O
40 | 52 |  |  |  | Nc1nc(N)c(N)c(OCC2CCCCC2)n1
 |  |  | 8 | 16 | Nc1cc(OCC2CC=CCC2)nc(N)n1 (configuration not stated)
8 | 6 |  |  |  | COC(=O)Nc1nc(N)nc(OCC2CCCCC2)c1N=O
 |  |  | 3 | 5 | Nc1nc(N)c(/C=N/OCc2ccccc2)c(OCC2CCCCC2)n1

Second part, the molecule before the results:

Structure (SMILES) | inhibition [1] [%] | inhibition [2] [%] | IC50 [3] [µM] | inhibition [4] [%] | inhibition [5] [%]
COc1ccc(Nc2nc(N)nc(OCC3CCCCC3)c2N=O)cc1 | 7 | 8 |  |  | 
Nc1nc(N)c(N=O)c(OCC2CC=CCC2)n1 (configuration not stated) |  |  | 5 |  | 
Nc1nc(N)c(N=O)c(OCc2ccccc2)n1 |  |  | 27 |  | 
NC(=O)N/N=C/c1c(N)nc(N)nc1OCC1CCCCC1 | 61 | 44 |  |  | 
Nc1nc(N)c(/C=N/O)c(OCC2CCCCC2)n1 | 25 | 37 |  |  | 
Nc1nc(N)c(N=O)c(OC[C@@H]2NCCC2=O)n1 |  |  | 65 |  | 
Nc1nc(Nc2ccccc2)c(N=O)c(OCC2CCCCC2)n1 | 23 | 47 |  |  | 
Nc1nc(N)c(C(O)c2ccccc2)c(OCC2CCCCC2)n1 (configuration not stated) | 4 | 12 |  |  | 
Nc1nc(NC(=O)OCc2ccccc2)c(N=O)c(OCC2CCCCC2)n1 |  |  |  | 11 | 14
CCCCCCCOc1nc(N)nc(N)c1N=O |  |  |  | 22 | 17
CCCCCOc1nc(N)nc(N)c1N=O |  |  |  | 36 | 35
CO/N=C/c1c(N)nc(N)nc1OCC1CCCCC1 |  |  |  | 13 | 13
